In patent US20090275527A1, “SKIN AGING TREATMENT COMPRISING PAEONIFLORIN” (LG HOUSEHOLD & HEALTH CARE LTD., priority 2004, published 2009):
Marks after values point to notes of the source that are not given here.

Tests used:
[1] = system: fibroblasts; test: Effect on fibroblast cell activity (MTT analysis); assay type: cell-based, mouse; settings: non-treated = 0
Protocol: Skin tissue was taken from a red skin mouse 3 days or less old. Hypodermic tissue was removed and the skin was treated with 0.25% trypsin for 12 hours. The skin was separated into the epidermis and the dermis. The epidermis was cultured to 75% confluence in an epidermis culture medium (K-SFM). The dermis was further treated with trypsin at 37° C. for 2 hours. Fibroblasts were taken from the dermis and cultured to 75% confluence in a DMEM culture medium containing 10% serum. Paeoniflorin prepared in Preparation Example 1 was dissolved in the cultured keratinocytes and fibroblasts and treated to 0.0004 M. Cell count was measured by MTT [3-(4,5-dimethylthiazol-2-yl)-2,5-diphenyltetrazolium bromide)] analysis to determine cell activity. A non-treated group and a group treated with 0.002 M vitamin C were tested as control groups.

[2] = system: Keratinocytes; test: Prevention against skin cell death and aging (X-Gal staining, flow cytometer), keratinocytes; assay type: cell-based, mouse
Protocol: (§1) Skin tissue was taken from a red skin mouse 3 days or less old. Hypodermic tissue was removed and the skin was treated with 0.25% trypsin for 12 hours. The skin was separated into the epidermis and the dermis. The epidermis was cultured to 75% confluence in an epidermis culture medium (K-SFM). The dermis was further treated with trypsin at 37° C. for 2 hours. Fibroblasts were taken from the dermis and cultured to 75% confluence in a DMEM culture medium containing 10% serum. Cell growth and division status was confirmed by specifically staining cell DNA. β-Gal is a material for specifically marking aged skin cells. Young cells and cells in the resting phase are left intact and only aged cells are specifically stained. Cultured keratinocytes and fibroblasts were treated with a minimum amount of X-Gal, respectively, and stained at 37 for 24 hours. Aged skin cells were stained to deep blue in 2-4 hours and gave the best result in 12-16 hours (see Proc. Natl. Acad. Sci. USA, 1995, 92: 9363-7). Then, stained cells (aged cells), living cells and dead cells were counted with a flow cytometer. In Table 4, “blank” refers to the control group containing no cells.

[3] = system: fibroblasts; test: Prevention against skin cell death and aging (X-Gal staining, flow cytometer), fibroblasts; assay type: cell-based, mouse
Protocol: as §1

[4] = system: guinea pig back skin; test: Guinea pig back skin application for 30 days: appearance, histology, collagen (HYP) content; assay type: in vivo; settings: 3 (w/v)% sample; for Increase of collagenous fiber bundles (%) / Increase of collagen content in dermis (%): about 5 mg/cm^2 twice a day; for Increase of collagen content in dermis (%): HYP content
Protocol: (§2) 10 g of stearic acid (C18H36O2), 70 mL of water and 20 mL of glycerol, each heated to 80, were mixed homogeneously. After stirring for about 1 minute, 3 (w/v)% of paeoniflorin or vitamin E (positive control group) was added. After adding 0.1 (w/v)% of methyl paraben, stirring was performed for 1 minute. 1 mL of KOH was slowly added. After considerable emulsification had proceeded, stirring was performed until the temperature reached about 50.
(§3) Guinea pigs were grouped, each group consisting of 3 males and 3 females. An area of 3×3 cm^2 was shaved from the back of each guinea pig. For each guinea pig, the left side was treated with the sample prepared above and the right side was treated as a negative control group and a positive control group. Application was performed at 8:00 H and 16:00 H each day. Application was performed for 30 days, at about 5 mg/cm^2 each. On the 31st day, skin was taken from the back of each animal. Subcutaneous fat tissue was removed and collagen and lipid peroxide contents were measured with […]. 3) Result
Back skin tissue was impregnated with paraffin and stained with HE (hematoxylin-eosin). Change of the skin tissue was observed. Skin collagen content was determined by adding 6 N hydrochloric acid to skin and measuring the HYP (hydroxyproline) content according to the chloramine-T oxidation method.

[5] = system: MDA (malondialdehyde); test: Guinea pig back skin application for 30 days: lipid peroxide MDA (thiobarboturic acid); assay type: in vivo; settings: 3 (w/v)% sample, Content by Equation 1 relative to blank group
Protocol: as §2, §3
(§4) SOD (superoxide dismutase) and GSH-Px (total glutathione peroxidase) are important antioxidative enzymes in living organisms. […]
(§5) MDA was detected using thiobarboturic acid. GSH-Px and SOD contents were measured by DNTB (5,5′-dithio-bis-2-nitrobenzoic acid) and nitrate reduction methods, respectively. […]

[6] = system: SOD (superoxide dismutase); test: Guinea pig back skin application for 30 days: SOD (nitrate reduction method); assay type: in vivo; settings: 3 (w/v)% sample, Content by Equation 1 relative to blank group
Protocol: as §2, §3, §4, §5

[7] = system: GSH-Px (total glutathione peroxidase); test: Guinea pig back skin application for 30 days: GSH-Px (DNTB method); assay type: in vivo; settings: 3 (w/v)% sample, Content by Equation 1 relative to blank group
Protocol: as §2, §3, §4, §5

[8] = system: normal human keratinocytes; test: Prevention of DNA impairment caused by UV (electrophoresis tail moment) in cultured keratinocytes; assay type: cell-based; settings: for Average tail moment (n = 50) / Prevention effect (%): 12 hours, then 60 mJ UVB
Protocol: Prevention effect of DNA impairment caused by UV of paeoniflorin prepared in Preparation Example 1 was determined for normal human skin keratinocytes.
Cultured normal human keratinocytes were treated with paeoniflorin of concentrations thereof for 12 hours. The culture medium was removed and the cells were washed with PBS. 60 mJ UVB was irradiated and DNA impairment of the cells was checked. If there is DNA strand breakage inside the cell nucleus, an extended tail is shown toward the positive electrode during electrophoresis. Thus, impairment of DNA can be easily detected by electrophoresis. The average of tail moment of 50 randomly selected cells was used as a control value. The tail moment of paeoniflorin-treated cells was averaged. The control value and the resultant test value were put in Equation 2 below to calculate paeoniflorin's prevention effect of DNA impairment caused by UV.
Prevention effect (%)=(Control value−Test value)/(Control value)×100 [Equation 2]

[9] = system: hairless mice; test: Prevention of DNA impairment caused by UV (in vivo); settings: after 6 days 1 J UVB
Protocol: Prevention effect (%)=(Control value−Test value)/(Control value)×100 [Equation 2] Paeoniflorin dissolved in 80% ethanol was applied to the back of hairless mice. After 6 days, 1 J UVB was irradiated. Skin cells were taken and DNA impairment was measured.

[10] = system: hairless mice; test: Prevention of wrinkles caused by UV; assay type: in vivo; settings: 0.2% in 1,3-butylene glycol; UV 2MED, 12 weeks, three days a week
Protocol: Prevention effect of wrinkles caused by UV of paeoniflorin prepared in Preparation Example 1 was evaluated as follows using hairless mice. UV was irradiated to hairless mice with a solar stimulator at 2MED (minimum erythema dose). Irradiation was performed for 12 weeks, three days a week. Of the total of 10 mice, 0.2% paeoniflorin dissolved in 1,3-butylene glycol was applied to the sample treatment group and only 1,3-butylene glycol was applied to the control group. Wrinkles of each group were compared 12 weeks later.

[11] = 0.01% in 80% ethanol applied to the back
[12] = 0.1% in 80% ethanol applied to the back
[13] = 1% in 80% ethanol applied to the back

O=C1O[C@H]([C@@H](O)CO)C(O)=C1O [vitamin C, reference compound]
Increase in cell activity (%) ([1]; 0.002 M): 14.4%

C[C@@]12C[C@@]3(O)O[C@@H](O1)[C@]1(COC(=O)c4ccccc4)[C@H]3C[C@@]12O[C@@H]1O[C@H](CO)[C@@H](O)[C@H](O)[C@H]1O [Paeoniflorin]
Increase in cell activity (%) ([1]; 0.0004 M): 25.7% | Cell aging rate ([2]; 0.0005 M): 24.7% | Cell death rate ([2]; 0.0005 M): 12.3% | Cell growth rate ([2]; 0.0005 M): 55.3% | Cell aging rate ([3]; 0.0005 M): 17.2% | Cell death rate ([3]; 0.0005 M): 11.5% | Cell growth rate ([3]; 0.0005 M): 18.4% | Cell organelles observed in the dermis [4]: Expansion of RER (rough endoplasmie reticulum) and increase of mitochondria | Histological observation (HE): change in the dermis [4]: an increase in collagenous fiber bundles was observed in the dermis | Histological observation (HE): change in the epidermis [4]: no significant change in the epidermis | Observation with the naked eyes of treated skin [4]: significant apparent improvement, such as soft and shiny skin | Increase of collagenous fiber bundles (%) [4]: 18.1* % | Increase of collagen content in dermis (%) [4]: 35.92* % | MDA [5]: 29.57* | SOD [6]: 8.58* | GSH-Px [7]: 29.51* | Average tail moment (n = 50) ([8]; 0.0001%): 7.951 ± 1.887 | Prevention effect (%) ([8]; 0.0001%): 16.9% | Average tail moment (n = 50) ([8]; 0.001%): 7.710 ± 2.161 | Prevention effect (%) ([8]; 0.001%): 19.4% | Average tail moment (n = 50) ([8]; 0.01%): 7.409 ± 2.395 | Prevention effect (%) ([8]; 0.01%): 22.6% | Average tail moment (n = 50) ([8]; 0.1%): 7.320 ± 2.534 | Prevention effect (%) ([8]; 0.1%): 23.5% | DNA impairment prevention effect ([8]; treatment concentration range of 0.0001% to 0.1%): at least 16.9% | Average tail moment (n = 50) [9, 11]: 14.968 ± 5.883 | Prevention effect (%) [9, 11]: 40.9% | Average tail moment (n = 50) [9, 12]: 18.930 ± 5.969 | Prevention effect (%) [9, 12]: 25.3% | Average tail moment (n = 50) [9, 13]: 18.363 ± 5.463 | Prevention effect (%) [9, 13]: 27.5% | Not improved (number of mice, wrinkles compared to the control group) [10]: 0 | Significantly improved (number of mice, wrinkles compared to the control group) [10]: 6 | Slightly improved (number of mice, wrinkles compared to the control group) [10]: 4

Vitamin E [reference compound]
Cell aging rate ([2]; 0.0004 M): 20.1% | Cell death rate ([2]; 0.0004 M): 10.5% | Cell growth rate ([2]; 0.0004 M): 23.3% | Cell aging rate ([3]; 0.0004 M): 22.8% | Cell death rate ([3]; 0.0004 M): 15.4% | Cell growth rate ([3]; 0.0004 M): 9.96% | Increase of collagenous fiber bundles (%) [4]: 10.4* % | Increase of collagen content in dermis (%) [4]: 29.86* % | MDA [5]: 26.71* | SOD [6]: 7.17* | GSH-Px [7]: 28.60*
